Laboratory results published in US20260317319A1, “NOVEL ERGOLINES AND METHODS OF TREATING MOOD DISORDERS” (Gilgamesh Pharma Inc., priority 2023, published 2026).
pEC50, pKi: −log10 of the molar value. Like-named read-outs stand apart in the source and are kept apart here.

Experiments:
5-HT2B receptor = molecular target: T1, 5-HT2B receptor (Homo sapiens, UniProt P41595); assay: cell-based; format: cell-based; details: Ca2+ flux; for Emax: HEK293, agonist, HEK293, max dose, read-out: 5-HT2B % Act @ Max Dose; for pEC50: agonist, HEK293
T1 construct: expressed in transfected cells; host or cells: HEK293, stably transfected
T1 sequence (P41595 whole entry): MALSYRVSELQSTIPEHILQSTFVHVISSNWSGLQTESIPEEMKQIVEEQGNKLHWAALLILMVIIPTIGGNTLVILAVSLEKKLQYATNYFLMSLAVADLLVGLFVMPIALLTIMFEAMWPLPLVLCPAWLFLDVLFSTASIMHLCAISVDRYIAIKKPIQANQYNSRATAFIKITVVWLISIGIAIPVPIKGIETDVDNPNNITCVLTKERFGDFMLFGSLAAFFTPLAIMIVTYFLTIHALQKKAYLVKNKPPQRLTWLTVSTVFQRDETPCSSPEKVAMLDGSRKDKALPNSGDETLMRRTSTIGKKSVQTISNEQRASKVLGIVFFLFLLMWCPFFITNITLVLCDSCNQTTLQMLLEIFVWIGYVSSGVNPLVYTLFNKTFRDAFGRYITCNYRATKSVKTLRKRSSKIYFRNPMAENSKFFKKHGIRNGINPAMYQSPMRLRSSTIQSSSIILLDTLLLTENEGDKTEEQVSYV
Outline: (§1)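 FLIPR Tetra fluorescence read-out of calcium flux after compound addition. Receptor-expressing stable lines were used (HEK293 for 2A/2B; CHO with Gα15 for 1A), dye-loaded with Fluo-4 Direct and 2.5 mM final probenecid, 50 min at 37 °C.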

5-HT1B receptor = molecular target: T2, 5-HT1B receptor (Homo sapiens, UniProt P28222); assay: cAMP accumulation functional assay at 5-HT1B; format: cell-based; details: agonist, cAMP accumulation; for Emax: max dose, read-out: 5-HT1B % Act @ Max Dose
T2 construct: expressed in transfected cells
T2 sequence (P28222 whole entry): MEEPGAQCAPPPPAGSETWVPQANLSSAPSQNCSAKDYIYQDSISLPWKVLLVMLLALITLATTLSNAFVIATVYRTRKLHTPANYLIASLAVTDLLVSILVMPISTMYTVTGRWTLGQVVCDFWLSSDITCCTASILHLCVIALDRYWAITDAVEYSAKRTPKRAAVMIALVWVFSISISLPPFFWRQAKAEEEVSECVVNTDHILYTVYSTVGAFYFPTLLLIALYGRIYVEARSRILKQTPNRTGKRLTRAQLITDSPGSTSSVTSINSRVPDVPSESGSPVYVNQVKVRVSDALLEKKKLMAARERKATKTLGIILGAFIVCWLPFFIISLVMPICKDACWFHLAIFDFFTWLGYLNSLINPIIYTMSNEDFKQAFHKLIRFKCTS
Outline: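 Stably transfected human 5-HT1B cells were incubated 60 min at room temperature, after which detection reagent was applied for another 60 min at RT. The read-out was cAMP accumulation, used as a measure of agonist activity.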

5-HT2A receptor [1] = molecular target: T3, 5-HT2A receptor (Homo sapiens, UniProt P28223); assay: biochemical; format: binding; set-up: expressed in transfected cells; host or cells: HEK293, stably transfected; details: [3H]ketanserin 1 nM; HEK293 stable cell line; 1 h, 25 °C
T3 sequence (P28223 whole entry): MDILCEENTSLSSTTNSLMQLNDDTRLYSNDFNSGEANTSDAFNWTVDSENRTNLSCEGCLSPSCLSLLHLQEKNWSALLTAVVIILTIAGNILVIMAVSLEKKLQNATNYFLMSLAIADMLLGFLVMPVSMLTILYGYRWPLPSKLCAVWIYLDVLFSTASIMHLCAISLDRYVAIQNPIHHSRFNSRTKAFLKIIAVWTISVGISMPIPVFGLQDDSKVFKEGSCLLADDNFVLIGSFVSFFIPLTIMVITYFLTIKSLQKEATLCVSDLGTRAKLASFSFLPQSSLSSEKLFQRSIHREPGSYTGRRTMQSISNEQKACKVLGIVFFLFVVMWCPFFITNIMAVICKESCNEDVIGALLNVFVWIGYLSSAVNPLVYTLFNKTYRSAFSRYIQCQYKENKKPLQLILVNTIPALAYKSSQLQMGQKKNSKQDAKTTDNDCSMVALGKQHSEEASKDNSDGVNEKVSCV
Outline: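 Values reflect [^3H]ketanserin binding competition. Assay conditions were adapted from the literature.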

in vitro [2] = format: in vitro ADME, human; details: human, microsomes, HLM 0.50 mg/mL, NADPH 1 mM, 1 μM compound, pH 7.4, 37° C., 60 min; for microsomal CLint: read-out: Intrinsic clearance (Clint); for half-life: read-out: half-life (t1/2)
5-HT2A receptor [3] = molecular target: T3, 5-HT2A receptor; assay: cell-based; format: cell-based; details: agonist, beta-arrestin recruitment; for pEC50: PathHunter, read-out: 5-HT2A Arrestin EC50; for Emax: max dose, read-out: 5-HT2A Arrestin % Act @ Max Dose
Outline: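 Agonist activity expressed as percent of maximal control ligand signal after vehicle subtraction, from chemiluminescence (RLU). Cells carry ProLink-tagged 5-HT2A plus β-arrestin fused to β-gal deletion mutant; ligand-driven arrestin binding restores β-galactosidase activity (PathHunter). Cells pre-incubated at 37° C.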

in vitro [4] = format: in vitro ADME, rat; details: rat, microsomes, RLM (male Sprague-Dawley) 0.50 mg/mL, NADPH 1 mM, 1 μM compound, pH 7.4, 37° C., 60 min; for microsomal CLint: read-out: Intrinsic clearance (Clint); for half-life: read-out: half-life (t1/2)
Excerpt: RLM Stability Pooled RLM from male Sprague-Dawley rats (Xenotech R1000) were used.

in vitro [5] = format: in vitro ADME, mouse; details: mouse, microsomes, MLM (male CD-1) 0.50 mg/mL, NADPH 1 mM, 1 μM compound, pH 7.4, 37° C., 60 min; for microsomal CLint: read-out: Intrinsic clearance (Clint); for half-life: read-out: half-life (t1/2)
Excerpt: MLM Stability Pooled MLM from male CD-1 mice (BIOIVT M00501) were used.

5-HT2A receptor [6] = molecular target: T3, 5-HT2A receptor; assay: cell-based; format: cell-based; set-up: expressed in transfected cells; host or cells: HEK293, stably transfected; details: Ca2+ flux; for Emax: HEK293, agonist, HEK293, max dose, read-out: 5-HT2A % Act @ Max Dose; for pEC50: agonist, HEK293
Outline: as §1

5-HT1A receptor = molecular target: T4, 5-HT1A receptor (Homo sapiens, UniProt P08908); assay: cell-based; details: agonist, Ca2+ flux; for Emax: CHO, CHO cells with Gα15, max dose, read-out: 5-HT1A % Act @ Max Dose; for pEC50: CHO cells with Gα15
T4 construct: expressed in transfected cells; host or cells: CHO cells, stably transfected
T4 sequence (P08908 1-422): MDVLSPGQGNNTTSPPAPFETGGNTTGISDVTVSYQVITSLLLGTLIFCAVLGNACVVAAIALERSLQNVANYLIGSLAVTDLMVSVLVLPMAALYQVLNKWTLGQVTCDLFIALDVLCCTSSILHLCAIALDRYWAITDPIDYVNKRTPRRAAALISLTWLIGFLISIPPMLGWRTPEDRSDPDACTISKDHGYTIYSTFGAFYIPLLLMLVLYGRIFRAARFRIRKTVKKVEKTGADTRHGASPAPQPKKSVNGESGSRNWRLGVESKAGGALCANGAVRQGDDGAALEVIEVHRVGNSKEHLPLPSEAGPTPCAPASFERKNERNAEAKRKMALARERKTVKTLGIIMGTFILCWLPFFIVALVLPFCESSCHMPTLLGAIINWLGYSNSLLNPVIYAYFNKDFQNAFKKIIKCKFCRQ
Outline: as §1

Row | Compound | Emax (5-HT2B receptor) [%] | pEC50 (5-HT2B receptor) | pEC50 (5-HT1B receptor) | Emax (5-HT1B receptor) [%] | pKi (5-HT2A receptor [1]) | microsomal CLint (in vitro [2]) [µL/min/mg] | half-life (in vitro [2]) [min] | pEC50 (5-HT2A receptor [3]) | Emax (5-HT2A receptor [3]) [%] | microsomal CLint (in vitro [4]) [µL/min/mg] | half-life (in vitro [4]) [min] | microsomal CLint (in vitro [5]) [µL/min/mg] | half-life (in vitro [5]) [min] | Emax (5-HT2A receptor [6]) [%] | pEC50 (5-HT2A receptor [6]) | Emax (5-HT1A receptor) [%] | pEC50 (5-HT1A receptor)
1 | CCN(CC)C(=O)[C@@H]1C=C2c3cccc4[nH]cc(c34)C[C@H]2N(Cc2ccccc2)C1 [Compound 82, (6aR,9R)-7-benzyl-N,N-diethyl-4,6,6a,7,8,9-hexahydroindolo[4,3-fg]quinoline-9-carboxamide] | 13.3 | < 5.00 | 6.00 | 62.8 | 8.71 | 106 | 13 | 8.76 | 26.1 | 190 | 7.3 | 553 | 2.5 | 61.4 | 6.38 | 27.8 | 5.47
2 | CCN(CC)C(=O)[C@@H]1C=C2c3cccc4[nH]cc(c34)C[C@H]2N(Cc2ccc(Cl)cc2)C1 [Compound 50, (6aR,9R)-7-(4-chlorobenzyl)-N,N-diethyl-4,6,6a,7,8,9-hexahydroindolo[4,3-fg]quinoline-9-carboxamide] | 2.94 | < 5.00 | < 5.00 | 41.9 | 8.38 | 65 | 21.3 | 7.46 | 41.2 |  |  |  |  | 88.2 | 5.49 | 8.23 | < 5.00
3 | CCN(CC)C(=O)[C@@H]1C=C2c3cccc4[nH]cc(c34)C[C@H]2N(Cc2cccc(O)c2)C1 [Compound 62, (6aR,9R)—N,N-diethyl-7-(3-hydroxybenzyl)-4,6,6a,7,8,9-hexahydroindolo[4,3-fg]quinoline-9-carboxamide] | 9.88 | < 4.00 | < 5.00 | 46.8 | 8.16 | 134 | 10.3 | 7.96 | 58.4 | 214 | 6.5 | 244 | 5.7 | 81.5 | 6.04 | 22.7 | 4.90
4 | CCN(CC)C(=O)[C@@H]1C=C2c3cccc4[nH]cc(c34)C[C@H]2N(Cc2ccc(F)cc2)C1 [Compound 49, (6aR,9R)—N,N-diethyl-7-(4-fluorobenzyl)-4,6,6a,7,8,9-hexahydroindolo[4,3-fg]quinoline-9-carboxamide] | 3.58 | < 5.00 | < 5.00 | 37.9 | 8.90 | 87.8 | 15.8 | 8.11 | 39.4 |  |  |  |  | 92.5 | 5.80 | 14.3 | < 5.00
